Test systems include DU-145 prostate; HCT-15 colon; HL-60(TB) leukemia; LOX IMVI melanoma; OVCAR-5 ovarian; RPMI-8226 leukemia; SK-MEL-28 melanoma; SK-MEL-5 melanoma; SR leukemia; UO-31 renal.
Holding throughout (assay): growth of human tumour cells (NCI), 48 h

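Values below derive from 48-hour exposures of cells grown in 96-well plates, with endpoints linearly interpolated between the two concentrations bracketing the appropriate inhibition level. Here, GI50 denotes the concentration required for 50% inhibition of growth. TGI marks complete inhibition of growth.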

`COc1ccc(NC2=C(Br)C(=O)C(C)=C(C)C2=O)cc1`: the GI50 is 15 µM in the test with DU-145 prostate; 11.4 µM with HCT-15 colon; 2.34 µM in the test with HL-60(TB) leukemia; 1.67 µM in the test with LOX IMVI melanoma; 5.07 µM with OVCAR-5 ovarian; 2.21 µM in the test with RPMI-8226 leukemia. For the same molecule, the GI50 in the test on SK-MEL-28 melanoma is 2.3 µM; with SK-MEL-5 melanoma, 13.1 µM; in the test with SR leukemia, 3.21 µM; in the test with UO-31 renal, 1.73 µM. Moreover, the TGI was determined as 29.1 µM in the test with DU-145 prostate; 27.7 µM with HCT-15 colon; 6.82 µM in the test with HL-60(TB) leukemia; 3.17 µM with LOX IMVI melanoma; 21.8 µM in the test with OVCAR-5 ovarian; 5.01 µM in the test on RPMI-8226 leukemia. The TGI with SK-MEL-28 melanoma is 4.76 µM; with SK-MEL-5 melanoma, 26 µM; in the test with SR leukemia, > 100 µM; in the test with UO-31 renal, 3.16 µM.

In the case of `C=CCOc1c(Br)cc(Br)cc1Br`, the GI50 in the test with DU-145 prostate was 58.5 µM; with HCT-15 colon it was 16.7 µM; with HL-60(TB) leukemia, 32.1 µM; with LOX IMVI melanoma it was 15.9 µM; in the test on OVCAR-5 ovarian, 28.2 µM; with RPMI-8226 leukemia, 16.2 µM. Moreover, the GI50 in the test on SK-MEL-28 melanoma was 75.5 µM; in the test with SK-MEL-5 melanoma it was 43.4 µM; with SR leukemia, 4.84 µM; in the test on UO-31 renal, 2.82 µM. In addition, the TGI in the test with DU-145 prostate is > 100 µM; with HCT-15 colon, > 100 µM; in the test on HL-60(TB) leukemia it was 89.3 µM; with LOX IMVI melanoma, > 100 µM; in the test on OVCAR-5 ovarian it was > 100 µM; with RPMI-8226 leukemia, > 100 µM. The TGI was > 100 µM in the test with SK-MEL-28 melanoma, > 100 µM in the test on SK-MEL-5 melanoma, > 100 µM in the test on SR leukemia and 57.8 µM in the test with UO-31 renal.

Take `Oc1ccc(Cc2ccccc2)c2cccnc12`: the GI50 in the test on DU-145 prostate is 2.58 µM; in the test with HCT-15 colon, 0.507 µM; in the test with HL-60(TB) leukemia, 1.56 µM; in the test with LOX IMVI melanoma, 1.53 µM; in the test with OVCAR-5 ovarian it was 4.73 µM; with RPMI-8226 leukemia, 1.46 µM. Also, the GI50 is 10.3 µM in the test on SK-MEL-28 melanoma, 1.52 µM in the test with SK-MEL-5 melanoma, 0.673 µM in the test with SR leukemia and 0.628 µM in the test with UO-31 renal. Besides, the TGI in the test with DU-145 prostate is > 100 µM; with HCT-15 colon, 44.9 µM; in the test on HL-60(TB) leukemia, 6.65 µM; in the test on LOX IMVI melanoma, 19 µM; with OVCAR-5 ovarian it was > 100 µM; with RPMI-8226 leukemia, > 100 µM. The TGI with SK-MEL-28 melanoma was > 100 µM; in the test with SK-MEL-5 melanoma, 10.8 µM; with SR leukemia it was > 100 µM; with UO-31 renal, 9.34 µM.

In the case of `CNc1nc(NC2CCCC2)nc(Sc2ccc(OC)cc2)n1`, the GI50 with DU-145 prostate, in the test on HCT-15 colon, with HL-60(TB) leukemia, with LOX IMVI melanoma, in the test on OVCAR-5 ovarian and in the test on RPMI-8226 leukemia was > 10 µM each time. The GI50 in the test with SK-MEL-28 melanoma, with SK-MEL-5 melanoma, in the test on SR leukemia and in the test with UO-31 renal was > 10 µM each time. Also, the TGI with DU-145 prostate, in the test on HCT-15 colon, in the test on HL-60(TB) leukemia, in the test on LOX IMVI melanoma, with OVCAR-5 ovarian and in the test with RPMI-8226 leukemia was > 10 µM in each case. In addition, the TGI with SK-MEL-28 melanoma, in the test with SK-MEL-5 melanoma, in the test on SR leukemia and in the test on UO-31 renal was > 10 µM each time.

Turning to `Cc1noc(C)c1-c1ccc2[nH]c(=O)n3c2c1OC[C@@H]3c1ccccn1`, the GI50 was > 64.3 µM with DU-145 prostate; 0.653 µM in the test with HCT-15 colon; 0.144 µM with HL-60(TB) leukemia; 0.581 µM in the test on LOX IMVI melanoma; 5.87 µM in the test with OVCAR-5 ovarian; 0.267 µM in the test on RPMI-8226 leukemia. Further, the GI50 with SK-MEL-28 melanoma is > 25.8 µM; in the test with SK-MEL-5 melanoma, 3.81 µM; in the test with SR leukemia, 0.267 µM; in the test with UO-31 renal it was 0.18 µM. The TGI is > 100 µM in the test on DU-145 prostate; > 100 µM in the test with HCT-15 colon; > 100 µM in the test on HL-60(TB) leukemia; > 32.1 µM in the test with LOX IMVI melanoma; > 100 µM in the test with OVCAR-5 ovarian; > 20.2 µM in the test on RPMI-8226 leukemia. Moreover, the TGI in the test on SK-MEL-28 melanoma, in the test with SK-MEL-5 melanoma, with SR leukemia and with UO-31 renal was > 100 µM in each case.

Consider `COc1ccccc1C(=O)c1ccc2ccccc2c1`, for which the TGI with DU-145 prostate is > 100 µM; in the test with HCT-15 colon, > 100 µM; in the test on HL-60(TB) leukemia, 21.8 µM; in the test on LOX IMVI melanoma, 31.7 µM; in the test with OVCAR-5 ovarian, > 100 µM; with RPMI-8226 leukemia, 97.5 µM. The TGI is > 100 µM in the test on SK-MEL-28 melanoma, 19.8 µM with SK-MEL-5 melanoma, 16.1 µM with SR leukemia and 64.7 µM in the test with UO-31 renal.

As to `CN1CCN(Cc2ccc(NC(=O)c3ccc(C(C)(C)C)c(C#Cc4cnc5cccnn45)c3)cc2C(F)(F)F)CC1`, the GI50 with DU-145 prostate is 1.89 µM; in the test with HCT-15 colon, 1.21 µM; with HL-60(TB) leukemia it was 2.62 µM; in the test with LOX IMVI melanoma, 1.52 µM; in the test with OVCAR-5 ovarian it was 2.71 µM; in the test on RPMI-8226 leukemia it was 2.54 µM. For the same molecule, the GI50 in the test on SK-MEL-28 melanoma is 1.93 µM; in the test with SK-MEL-5 melanoma, 2.16 µM; in the test on SR leukemia, 0.199 µM; with UO-31 renal, 1.93 µM. Further, the TGI in the test with DU-145 prostate is 3.39 µM; with HCT-15 colon, 2.66 µM; in the test on HL-60(TB) leukemia, 6.5 µM; in the test on LOX IMVI melanoma, 2.87 µM; in the test on OVCAR-5 ovarian it was 7.18 µM; in the test on RPMI-8226 leukemia, 6.11 µM. Besides, the TGI with SK-MEL-28 melanoma was found to be 3.73 µM; in the test on SK-MEL-5 melanoma, 4.86 µM; with SR leukemia it was 0.512 µM; in the test with UO-31 renal, 3.9 µM.

Regarding `COc1ccc2c(-c3cc4ccccc4o3)cc(=O)oc2c1`, the TGI in the test on DU-145 prostate, in the test on HCT-15 colon, in the test on HL-60(TB) leukemia, in the test on LOX IMVI melanoma, with OVCAR-5 ovarian and in the test with RPMI-8226 leukemia was > 100 µM each time. Moreover, the TGI in the test with SK-MEL-28 melanoma is > 100 µM; in the test on SK-MEL-5 melanoma it was > 100 µM; in the test on SR leukemia, > 100 µM; with UO-31 renal it was 65.6 µM.
